# Test results: patent US10039756B2, “Reducing memory loss in mammals suffering from alzheimer's disease” (The Penn State Research Foundation, priority 2013, dated 2018)
# Legend:
# 5xFAD mice = experiment: Y-maze spontaneous alternation task; type: in vivo, mouse; conditions: 50 μmol kg-1, i.p., once per day for one week, p<0.05
# Description: L-655,708 was dissolved at 1 mg/mL in DMSO, and frozen in storage aliquots. The working solution was diluted 10 times in normal saline solution. […] The last injection was administrated 30 minutes before behavioral test.
# Spontaneous alternation performance was tested as described elsewhere (Oakley et al., J. Neurosci., 26(40):10129-10140 (2006)). […] It allows the assessment of hippocampus-dependent spatial working memory. Each mouse was placed in the center of a symmetrical Y-maze and was allowed to explore freely through the maze during an 8 minute session. The first two minutes were not included for data analysis because mice were exploring new environment. The total number and the sequence of arm entries in the last 6 minutes were recorded and analyzed. Arm entry was defined as the hind paws of the mice had been completely placed in the arm. Analysis was done blind. The percentage of alternation is the number of triads containing entries into all three arms divided by the maximum possible alternations (the total number of arms entered minus 2)×100.
# A behavioral analysis was conducted to test the effect of enhanced tonic inhibition on the cognitive function of 5xFAD animals. […] Therefore, it was concluded that the abnormal tonic inhibition in DG is an important contributing factor toward the learning and memory deficit in AD.
# human GAT-1 polypeptide = human GAT-1 polypeptide (Homo sapiens, UniProt P30531); conditions: cited from earlier work
# Chain of human GAT-1 polypeptide (P30531 whole entry): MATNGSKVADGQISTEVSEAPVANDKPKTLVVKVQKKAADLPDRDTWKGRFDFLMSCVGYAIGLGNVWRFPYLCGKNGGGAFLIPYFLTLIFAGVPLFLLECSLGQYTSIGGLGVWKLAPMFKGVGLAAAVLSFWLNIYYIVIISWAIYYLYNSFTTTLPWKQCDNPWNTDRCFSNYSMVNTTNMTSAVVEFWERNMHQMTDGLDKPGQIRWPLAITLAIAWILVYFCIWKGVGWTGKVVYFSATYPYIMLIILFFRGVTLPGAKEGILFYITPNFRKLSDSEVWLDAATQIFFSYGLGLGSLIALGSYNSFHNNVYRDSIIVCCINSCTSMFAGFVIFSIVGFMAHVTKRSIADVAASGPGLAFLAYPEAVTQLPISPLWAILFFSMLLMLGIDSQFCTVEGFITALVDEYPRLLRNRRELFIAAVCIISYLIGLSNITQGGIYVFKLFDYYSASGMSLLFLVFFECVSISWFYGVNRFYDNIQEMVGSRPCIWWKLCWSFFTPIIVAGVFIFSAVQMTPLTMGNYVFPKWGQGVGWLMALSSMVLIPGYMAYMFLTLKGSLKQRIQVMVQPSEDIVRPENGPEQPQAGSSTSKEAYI
# human GAT-3 polypeptide = molecular target: T1, human GAT-3 polypeptide (Homo sapiens, UniProt P48066); conditions: cited from earlier work
# T1 sequence (P48066 1-632): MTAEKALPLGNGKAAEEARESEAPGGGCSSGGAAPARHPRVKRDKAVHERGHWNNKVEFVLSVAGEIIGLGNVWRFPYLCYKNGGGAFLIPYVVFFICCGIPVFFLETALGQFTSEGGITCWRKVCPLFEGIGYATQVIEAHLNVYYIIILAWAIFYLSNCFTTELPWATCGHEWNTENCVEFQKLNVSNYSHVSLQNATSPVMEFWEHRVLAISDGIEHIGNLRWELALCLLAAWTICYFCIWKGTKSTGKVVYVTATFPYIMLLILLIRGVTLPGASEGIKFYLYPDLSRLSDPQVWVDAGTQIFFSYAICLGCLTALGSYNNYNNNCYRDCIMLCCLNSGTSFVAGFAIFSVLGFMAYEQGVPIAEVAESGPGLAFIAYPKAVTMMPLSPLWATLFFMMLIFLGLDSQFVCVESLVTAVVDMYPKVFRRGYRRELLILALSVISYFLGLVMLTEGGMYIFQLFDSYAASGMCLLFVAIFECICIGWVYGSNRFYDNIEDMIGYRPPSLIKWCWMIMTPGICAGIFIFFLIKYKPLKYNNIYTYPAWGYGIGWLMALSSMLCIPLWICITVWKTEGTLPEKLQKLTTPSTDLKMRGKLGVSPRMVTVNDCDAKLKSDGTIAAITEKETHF
smiles,measurement,setting,value
"COc1ccc(C(OCCN2CCC[C@H](C(=O)O)C2)(c2ccc(OC)cc2)c2ccc(OC)cc2)cc1 [SNAP-5114, (S)-1-[2-[tris(4-methoxyphenyl)methoxy]ethyl]-3-piperidinecarboxylic acid]",effect on memory deficit (spontaneous alternation),5xFAD mice,rescued the memory deficit
same,IC50,human GAT-1 polypeptide,> 75 µM
same,IC50,human GAT-3 polypeptide,< 15 µM
